Measurements taken from patent publication US10703764B2, “Benzopiperazine compositions as BET bromodomain inhibitors” (FORMA Therapeutics, Inc., priority 2013, dated 2020).

Assays:
BRD4 BD2 = target: T1, BRD4 BD2 (Homo sapiens, UniProt O60885); test: AlphaScreen binding assay, BRD4 Bromodomain 2
T1 construct: made in house
Method in brief: (§1)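 Compound dilution series were mixed with His-tagged BRD4 bromodomain and biotinylated tetra-acetylated H4 (1-21) peptide at pH 7.3 (BD1 and peptide at 50 nM, BD2 and peptide at 100 nM). Donor and acceptor beads were then added, and plates were equilibrated at least 1 h before reading. IC50 values were fitted with a four-parameter logistic model.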

MV4-11 cells = test: Oncology cell growth assay (3-day proliferation, CellTiter-Glo); assay type: cell-based; settings: Homo sapiens, MV4-11, 72 h, AML cell line MV4-11, 72 hours, compounds grouped by IC50 range, read-out: MV4-11 IC50 (inhibition of proliferation, gIC50)
Method: The impact of Example compounds on cancer cell proliferation was determined using the acute myelocytic leukemia (AML) cell line MV4-11 (ATCC) in a 3-day proliferation assay. MV4-11 cells were maintained in RPMI 1640 media supplemented with 10% FBS at 37° C. and an atmosphere of 5% CO2. For compound testing, compound dilutions series were prepared in DMSO via a 3-fold serial dilution from 2 mM to 0.001 mM in 384-well white flat bottom plates. The final compound concentrations in the wells were 10, 3.3, 1.1, 0.37, 0.12, 0.041, 0.013 and 0.0045 μM. MV4-11 cells were plated at a density of 3000 cells/well in final volume of 50 μl culture media and incubated for 72 hours. […] Luminescent signal from the CellTiter-Glo assay was read on an EnVision multilabel plate reader (PerkinElmer). Values for the concentration that inhibited cell growth by 50% (gIC50) between the DMSO control and background control (no cells) were determined using IDBS Activity Base software with a four parameter logistic curve fit by the equation y=A+((B−A)/(1+((C/x)^D))), wherein A denotes the bottom plateau of the curve, B denotes the top plateau of the curve, C denotes the x value at the middle of the curve, D denotes the slope factor, x denotes the original known x values, and y denotes the original known y values. Data was fitted using the Levenburg Marquardt algorithm.

BRD4 BD1 = target: T2, BRD4 BD1 (Homo sapiens, UniProt O60885); test: AlphaScreen binding assay, BRD4 Bromodomain 1
T2 construct: made in house
Method in brief: as §1

SMILES: CC(=O)N1c2ccc(-c3cc[nH]n3)cc2N(C(=O)c2ccco2)C[C@@H]1C [Example I-14, (S)-1-(4-(furan-2-carbonyl)-2-methyl-6-(1H-pyrazol-3-yl)-3,4-dihydro-quinoxalin-1(2H)-yl)ethanone]
- IC50 (BRD4 BD2): < 50 nM
- IC50 (MV4-11 cells): 100 to 500 nM
- IC50 (BRD4 BD1): 1000 to 10000 nM

SMILES: CC(=O)N1c2ccc(-c3cnc(C)s3)cc2N(C(=O)c2ccco2)C[C@@H]1C [Example I-15, (S)-1-(4-(furan-2-carbonyl)-2-methyl-6-(2-methylthiazol-5-yl)-3,4-dihydroquinoxalin-1(2H)-yl)ethanone]
- IC50 (BRD4 BD2): < 50 nM
- IC50 (MV4-11 cells): 100 to 500 nM
- IC50 (BRD4 BD1): 1000 to 10000 nM

SMILES: CC(=O)N1c2ccc(-c3cn[nH]c3)cc2N(C(=O)Oc2ccccc2)C[C@@H]1C [Example I-16, (S)-phenyl 4-acetyl-3-methyl-7-(1H-pyrazol-4-yl)-3,4-dihydroquinoxaline-1(2H)-carboxylate]
- IC50 (BRD4 BD2): < 50 nM
- IC50 (MV4-11 cells): < 100 nM
- IC50 (BRD4 BD1): 100 to 1000 nM

SMILES: COCCn1cc(-c2ccc3c(c2)N(C(=O)OC(C)C)C[C@H](C)N3C(C)=O)cn1 [Example I-17, (S)-isopropyl 4-acetyl-7-(1-(2-methoxyethyl)-1H-pyrazol-4-yl)-3-methyl-3,4-dihydroquinoxaline-1(2H)-carboxylate]
- IC50 (BRD4 BD2): < 50 nM
- IC50 (MV4-11 cells): 100 to 500 nM
- IC50 (BRD4 BD1): 100 to 1000 nM

SMILES: COCCn1cc(-c2ccc3c(c2)N(C(=O)c2ccco2)C[C@H](C)N3C(C)=O)cn1 [Example I-18, (S)-1-(4-(furan-2-carbonyl)-6-(1-(2-methoxyethyl)-1H-pyrazol-4-yl)-2-methyl-3,4-dihydroquinoxalin-1(2H)-yl)ethanone]
- IC50 (BRD4 BD2): < 50 nM
- IC50 (MV4-11 cells): 100 to 500 nM
- IC50 (BRD4 BD1): 100 to 1000 nM

SMILES: CCOC(=O)N1C[C@H](C)N(C(C)=O)c2ccc(-c3cn[nH]c3)cc21 [Example I-19, (S)-ethyl 4-acetyl-3-methyl-7-(1H-pyrazol-4-yl)-3,4-dihydroquinoxaline-1(2H)-carboxylate]
- IC50 (BRD4 BD2): 50 to 500 nM
- IC50 (MV4-11 cells): 100 to 500 nM
- IC50 (BRD4 BD1): 1000 to 10000 nM

SMILES: CC(=O)N1c2ccc(-c3cn[nH]c3)cc2N(C(=O)OC2CCCC2)C[C@@H]1C [Example I-20, (S)-cyclopentyl 4-acetyl-3-methyl-7-(1H-pyrazol-4-yl)-3,4-dihydro-quinoxaline-1(2H)-carboxylate]
- IC50 (BRD4 BD2): 50 to 500 nM
- IC50 (MV4-11 cells): 100 to 500 nM
- IC50 (BRD4 BD1): < 100 nM

SMILES: CCOC(=O)N1C[C@H](C)N(C(C)=O)c2ccc(-c3cnn(C4CC4)c3)cc21 [Example I-21, (S)-ethyl 4-acetyl-7-(1-cyclopropyl-1H-pyrazol-4-yl)-3-methyl-3,4-dihydroquinoxaline-1(2H)-carboxylate]
- IC50 (BRD4 BD2): 50 to 500 nM
- IC50 (MV4-11 cells): 100 to 500 nM
- IC50 (BRD4 BD1): 100 to 1000 nM

SMILES: CC(=O)N1c2ccc(-c3cnn(C4CC4)c3)cc2N(C(=O)OC(C)C)C[C@@H]1C [Example I-22, (S)-isopropyl 4-acetyl-7-(1-cyclopropyl-1H-pyrazol-4-yl)-3-methyl-3,4-dihydroquinoxaline-1(2H)-carboxylate]
- IC50 (BRD4 BD2): 50 to 500 nM
- IC50 (MV4-11 cells): < 100 nM
- IC50 (BRD4 BD1): 100 to 1000 nM

SMILES: CC(=O)N1c2ccc(-c3cnn(C4CC4)c3)cc2N(C(=O)OC2CCCC2)C[C@@H]1C [Example I-23, (S)-cyclopentyl 4-acetyl-7-(1-cyclopropyl-1H-pyrazol-4-yl)-3-methyl-3,4-dihydroquinoxaline-1(2H)-carboxylate]
- IC50 (BRD4 BD2): 50 to 500 nM
- IC50 (MV4-11 cells): < 100 nM
- IC50 (BRD4 BD1): < 100 nM

SMILES: CC(=O)N1c2ccc(-c3cnn(C4CCC4)c3)cc2N(C(=O)OC(C)C)C[C@@H]1C [Example I-24, (S)-isopropyl 4-acetyl-7-(1-cyclobutyl-1H-pyrazol-4-yl)-3-methyl-3,4-dihydroquinoxaline-1(2H)-carboxylate]
- IC50 (BRD4 BD2): 50 to 500 nM
- IC50 (MV4-11 cells): 100 to 500 nM
- IC50 (BRD4 BD1): < 100 nM

SMILES: CC(=O)N1c2ccc(-c3cnn(C4CCC4)c3)cc2N(C(=O)OC2CCCC2)C[C@@H]1C [Example I-25, (S)-cyclopentyl 4-acetyl-7-(1-cyclobutyl-1H-pyrazol-4-yl)-3-methyl-3,4-dihydroquinoxaline-1(2H)-carboxylate]
- IC50 (BRD4 BD2): < 50 nM
- IC50 (MV4-11 cells): < 100 nM
- IC50 (BRD4 BD1): < 100 nM

SMILES: CC(=O)N1c2ccc(-c3cnn(C4CC4)c3)cc2N(C(=O)OC2CC(F)(F)C2)C[C@@H]1C [Example I-26, (S)-3,3-difluorocyclobutyl 4-acetyl-7-(1-cyclopropyl-1H-pyrazol-4-yl)-3-methyl-3,4-dihydroquinoxaline-1(2H)-carboxylate]
- IC50 (BRD4 BD2): 50 to 500 nM
- IC50 (MV4-11 cells): 100 to 500 nM
- IC50 (BRD4 BD1): 100 to 1000 nM

SMILES: CC(=O)N1c2ccc(-c3cnn(CCO)c3)cc2N(C(=O)OC2CC(F)(F)C2)C[C@@H]1C [Example I-27, (S)-3,3-difluorocyclobutyl 4-acetyl-7-(1-(2-hydroxyethyl)-1H-pyrazol-4-yl)-3-methyl-3,4-dihydroquinoxaline-1(2H)-carboxylate]
- IC50 (BRD4 BD2): 50 to 500 nM
- IC50 (MV4-11 cells): 100 to 500 nM
- IC50 (BRD4 BD1): 100 to 1000 nM

SMILES: CC(=O)N1c2ccc(-c3cnn(CC(C)(C)O)c3)cc2N(C(=O)OC2CC(F)(F)C2)C[C@@H]1C [Example I-28, (S)-3,3-difluorocyclobutyl 4-acetyl-7-(1-(2-hydroxy-2-methylpropyl)-1H-pyrazol-4-yl)-3-methyl-3,4-dihydroquinoxaline-1(2H)-carboxylate]
- IC50 (BRD4 BD2): 50 to 500 nM
- IC50 (MV4-11 cells): > 500 nM
- IC50 (BRD4 BD1): 100 to 1000 nM

SMILES: CC(=O)N1c2ccc(-c3ccc(N4CCCS4(=O)=O)cc3)cc2N(C(=O)OC2CC(F)(F)C2)C[C@@H]1C [Example I-29, 3,3-difluorocyclobutyl (3S)-4-acetyl-7-[4-(1,1-dioxo-1λ^6,2-thiazolidin-2-yl)phenyl]-3-methyl-1,2,3,4-tetrahydroquinoxaline-1-carboxylate]
- IC50 (BRD4 BD2): > 500 nM
- IC50 (MV4-11 cells): > 500 nM
- IC50 (BRD4 BD1): 100 to 1000 nM

SMILES: CC(=O)N1c2ccc(-c3ccc(NS(C)(=O)=O)cc3)cc2N(C(=O)OC2CC(F)(F)C2)C[C@@H]1C [Example I-30, (S)-3,3-difluorocyclobutyl 4-acetyl-3-methyl-7-(4-(methylsulfonamido)phenyl)-3,4-dihydroquinoxaline-1(2H)-carboxylate]
- IC50 (BRD4 BD2): > 500 nM
- IC50 (MV4-11 cells): > 500 nM
- IC50 (BRD4 BD1): 100 to 1000 nM

SMILES: CC(=O)N1c2ccc(-c3ccc(NS(C)(=O)=O)cc3)cc2N(C(=O)OC2CCC(F)(F)CC2)C[C@@H]1C [Example I-31, (S)-4,4-difluorocyclohexyl 4-acetyl-3-methyl-7-(4-(methylsulfonamido)phenyl)-3,4-dihydroquinoxaline-1(2H)-carboxylate]
- IC50 (BRD4 BD2): 50 to 500 nM
- IC50 (MV4-11 cells): 100 to 500 nM
- IC50 (BRD4 BD1): 100 to 1000 nM

SMILES: CC(=O)N1c2ccc(-c3cnn(C4CC4)c3)cc2N(C(=O)OC2CCC(F)(F)CC2)C[C@@H]1C [Example I-33, (S)-4,4-difluorocyclohexyl 4-acetyl-7-(1-cyclopropyl-1H-pyrazol-4-yl)-3-methyl-3,4-dihydroquinoxaline-1(2H)-carboxylate]
- IC50 (BRD4 BD2): 50 to 500 nM
- IC50 (MV4-11 cells): 100 to 500 nM
- IC50 (BRD4 BD1): 100 to 1000 nM

SMILES: CC(=O)N1c2ccc(-c3cnn(CCO)c3)cc2N(C(=O)OC2CCC(F)(F)CC2)C[C@@H]1C [Example I-34, (S)-4,4-difluorocyclohexyl 4-acetyl-7-(1-(2-hydroxyethyl)-1H-pyrazol-4-yl)-3-methyl-3,4-dihydroquinoxaline-1(2H)-carboxylate]
- IC50 (BRD4 BD2): 50 to 500 nM
- IC50 (MV4-11 cells): 100 to 500 nM
- IC50 (BRD4 BD1): 100 to 1000 nM

SMILES: CC(=O)N1c2ccc(-c3cnn(CC(C)(C)O)c3)cc2N(C(=O)OC2CCC(F)(F)CC2)C[C@@H]1C [Example I-35, (S)-4,4-difluorocyclohexyl 4-acetyl-7-(1-(2-hydroxy-2-methylpropyl)-1H-pyrazol-4-yl)-3-methyl-3,4-dihydroquinoxaline-1(2H)-carboxylate]
- IC50 (BRD4 BD2): 50 to 500 nM
- IC50 (MV4-11 cells): 100 to 500 nM
- IC50 (BRD4 BD1): 100 to 1000 nM

SMILES: CC(=O)N1c2ccc(-c3ccc(N4CCCS4(=O)=O)cc3)cc2N(C(=O)OC2CCC(F)(F)CC2)C[C@@H]1C [Example I-36, 4,4-difluorocyclohexyl (3S)-4-acetyl-7-[4-(1,1-dioxo-1λ^6,2-thiazolidin-2-yl)phenyl]-3-methyl-1,2,3,4-tetrahydroquinoxaline-1-carboxylate]
- IC50 (BRD4 BD2): 50 to 500 nM
- IC50 (MV4-11 cells): 100 to 500 nM
- IC50 (BRD4 BD1): 1000 to 10000 nM

SMILES: CC(=O)N1c2ccc(-c3cnn(C4CS(=O)(=O)C4)c3)cc2N(C(=O)OC2CCOCC2)C[C@@H]1C [Example I-37, oxan-4-yl (3S)-4-acetyl-7-[1-(1,1-dioxo-1λ^6-thietan-3-yl)-1H-pyrazol-4-yl]-3-methyl-1,2,3,4-tetrahydroquinoxaline-1-carboxylate]
- IC50 (BRD4 BD2): 50 to 500 nM
- IC50 (MV4-11 cells): 100 to 500 nM
- IC50 (BRD4 BD1): 100 to 1000 nM

SMILES: CC(=O)N1c2ccc(-c3cnn(C4CCOCC4)c3)cc2N(C(=O)OC2CCOCC2)C[C@@H]1C [Example I-38, (S)-tetrahydro-2H-pyran-4-yl 4-acetyl-3-methyl-7-(1-(tetrahydro-2H-pyran-4-yl)-1H-pyrazol-4-yl)-3,4-dihydroquinoxaline-1(2H)-carboxylate]
- IC50 (BRD4 BD2): 50 to 500 nM
- IC50 (MV4-11 cells): 100 to 500 nM
- IC50 (BRD4 BD1): 100 to 1000 nM
